Tested on: patients with moderate to severe atopic dermatitis
Experiment: Phase II placebo-controlled study of oral DS107G: efficacy (IGA, EASI, SCORAD, pruritus VAS, BSA)
Assay type: in vivo, human
Settings: for IGA Non-Responders at Week 8, (%) / IGA Responders at Week 8, (%) / IGA Score Week 8: 0 - Clear, (%) / IGA Score Week 8: 1 - Almost Clear, (%) / IGA Score Week 8: 2 - Mild, (%) / IGA Score Week 8: 3 - Moderate, (%) / IGA Score Week 8: 4 - Severe, (%) / IGA Score Week 8: 5 - Very Severe, (%): ITT; for Visual analog scale of pruritus, Week 8/ET Actual, Mean / Visual analog scale of pruritus, Week 8/ET Actual, Median: oral 2 g once daily
Experimental: A randomised, double-blind, placebo-controlled, phase II study was performed to assess the efficacy and safety of orally administered DS107G (DGLA) to patients with moderate to severe atopic dermatitis. The primary objective of the study was to compare the efficacy of orally administered DS107G capsules, versus placebo, in the treatment of adult patients with moderate to severe atopic dermatitis. The secondary objective was to assess the safety of orally administered DS107G capsules, versus placebo, in adult patients with moderate to severe atopic dermatitis. The primary study endpoint was the proportion of patients achieving an IGA (Investigator Global Assessment) of 0 (clear) or 1 (almost clear) and a decrease of at least 2 points in IGA at week 8. Secondary study endpoints included:
Approximately 100 patients with moderate to severe atopic dermatitis were included in this multicenter, double-blind, placebo controlled, phase IIa study. All subjects signed an informed consent and underwent screening for study eligibility. Subjects were randomized (1:1) at baseline visit to either receive oral DS107G 2 g or placebo, once daily for 8 weeks in a fasting state.
Subjects visited the clinic on 6 occasions: at screening, baseline, week 2, week 4, week 8 (end of treatment/early termination) and week 10 (follow-up). All subjects exited the study at the week 10 visit. The primary efficacy variable was the proportion of patients achieving an IGA of 0 (clear) or 1 (almost clear), and a decrease of at least 2 points in IGA at week 8. Secondary efficacy variables included: IGA at other visits, pruritus (obtained from the SCORAD visual analog scale), EASI, BSA, POEM, DLQI, SCORAD and TEWL (for selected sites only). Safety was assessed through adverse events, physical examination, vital signs and safety laboratory tests (including pregnancy tests for women of childbearing potential), Pharmacokinetic samples were obtained at Baseline (Day 0), week 4 and week 8 visits in order to measure total and free DGLA plasma trough levels. Separate plasma samples were retained for later analysis of total fatty acid profile and interleukin profile.
The EASI is a composite score ranging from 0-72 that takes into account the degree of erythema, induration/papulation, excoriation, and lichenification (each scored from 0 to 3 separately) for each of four body regions, with adjustment for the percent of BSA involved for each body region and for the proportion of the body region to the whole body. A detailed procedure of EASI score calculation is provided below.
SCORAD is calculated as follows: Six items (erythema, edema/papulation, oozing/crusts, excoriation, lichenification, and dryness) are selected to evaluate the AD severity. The intensity of each item is graded using a 4-point scale:
The overall BSA affected by AD is evaluated (from 0 to 100%) and divided by 5. One patient's palm represents 1% of his/her total BSA. The maximum is 20.
Subjective items include loss of sleep and the occurrence of pruritus. These are evaluated by asking patients to indicate on the 10-cm scale (0-10) on the assessment form the point corresponding to the average value for the last three days/nights. The combined maximum score of these two is 20.
The sum of the above measures represents the SCORAD which can vary from 0 to 103. If the subjective scores of pruritus and loss of sleep are excluded, the SCORAD becomes objective SCORAD (score range 0-83).
Body Surface Area (BSA). The overall BSA affected by AD will be evaluated (from 0 to 100%) at each visit. One patient's palm represents 1% of his/her total BSA. For all study visits, except at screening, the BSA of involved skin will be measured with the SCORAD measurement and evaluated as a separate endpoint.
Subjects who fulfilled all the inclusion and none of the exclusion criteria were accepted in the study. Each subject read and signed an informed consent form prior to any screening procedures being performed. […]

[1] = oral 2 g once daily 8 weeks, n 35

SMILES: CCCCC/C=C\C/C=C\C/C=C\CCCCCCC(=O)O [DGLA, Dihomo gamma linolenic acid]
- IGA Non-Responders at Week 8, (%) (Moderate at baseline): (72.4) %
- IGA Responders at Week 8, (%) (Moderate at baseline): (27.6) %
- IGA Score Week 8: 0 - Clear, (%) (Moderate at baseline): (13.8) %
- IGA Score Week 8: 1 - Almost Clear, (%) (Moderate at baseline): (13.8) %
- IGA Score Week 8: 2 - Mild, (%) (Moderate at baseline): (20.7) %
- IGA Score Week 8: 3 - Moderate, (%) (Moderate at baseline): (13.8) %
- IGA Score Week 8: 4 - Severe, (%) (Moderate at baseline): (3.4) %
- IGA Score Week 8: 5 - Very Severe, (%) (Moderate at baseline): (0.0) %
- IGA Non-Responders at Week 8, (%) (Very Severe/Severe at baseline): (72.7) %
- IGA Score Week 8: 0 - Clear, (%) (Very Severe/Severe at baseline): (0.0) %
- IGA Score Week 8: 1 - Almost Clear, (%) (Very Severe/Severe at baseline): (13.6) %
- IGA Score Week 8: 2 - Mild, (%) (Very Severe/Severe at baseline): (13.6) %
- IGA Score Week 8: 3 - Moderate, (%) (Very Severe/Severe at baseline): (27.3) %
- IGA Score Week 8: 4 - Severe, (%) (Very Severe/Severe at baseline): (13.6) %
- IGA Score Week 8: 5 - Very Severe, (%) (Very Severe/Severe at baseline): (4.5) %
- IGA Responders at Week 8, (%) (Very Severe/Severe at baseline, p-value 0.542): (27.3) %
- IGA Non-Responders at Week 8, (%) (total population (N = 51)): (72.5) %
- IGA Score Week 8: 0 - Clear, (%) (total population (N = 51)): (7.8) %
- IGA Score Week 8: 1 - Almost Clear, (%) (total population (N = 51)): (13.7) %
- IGA Score Week 8: 2 - Mild, (%) (total population (N = 51)): (17.6) %
- IGA Score Week 8: 3 - Moderate, (%) (total population (N = 51)): (19.6) %
- IGA Score Week 8: 4 - Severe, (%) (total population (N = 51)): (7.8) %
- IGA Score Week 8: 5 - Very Severe, (%) (total population (N = 51)): (2.0) %
- IGA Responders at Week 8, (%) (total population, decrease of at least 2 points in IGA score, p-value 0.065 (Cochran-Mantel-Haenszel), 0.228 (Fisher Exact)): (27.5) %
- Visual analog scale of pruritus, Week 8/ET Actual, Mean (Table 9A (Week 4), n 35): 4.6
- Visual analog scale of pruritus, Week 8/ET Actual, Median (Table 9A (Week 4), n 35): 4.0
- Visual analog scale of pruritus, Week 8/ET Actual, Mean (Table 9B (Week 8), n 35): 4.6
- Visual analog scale of pruritus, Week 8/ET Actual, Median (Table 9B (Week 8), n 35): 4.0
- EASI, Change from baseline, LSMEANS (Week 8/ET, ANCOVA, p-value 0.831 vs placebo): −8.0
- Primary efficacy end point (two point drop in IGA and end of treatment IGA of 0 or 1) over placebo (intent to treat analysis, overall, p=0.057): clinically significant trend
- Primary efficacy end point (two point drop in IGA and end of treatment IGA of 0 or 1) over placebo (moderate patient subgroup (n=67), p=0.036): statistically significant improvement
- Body surface area affected by atopic dermatitis, Week 8/ET Actual, Median [1]: 12.0
- EASI, Week 8/ET Actual, Median [1]: 7.4
- Eczema area and severity index (EASI), Week 8/ET Actual, Mean [1]: 9.3
- Pruritus score [visual analog scale] (within four weeks of dosing, p=0.015): statistically significant reduction of itch

From patent publication US20190175534A1, “PHARMACEUTICAL COMPOSITIONS COMPRISING DGLA AND USE OF SAME” (DS Biopharma Limited, priority 2016, published 2019)
